US11532406B2, “High specific activity preparation of F-18 tetrafluoroborate” (Mayo Foundation for Medical Education and Research, priority 2016, dated 2022)
Values joined by “and” are separate entries in the source; they are usually repeats but may differ in a detail not shown here. Equal entries are not always repeated. “Also recorded” adds a separate entry of the source. Marks after values point to notes of the source that are not given here.

Tests used:
[1] = test system: hNIS-expressing C6 glioma xenograft; assay: Dynamic PET imaging in hNIS-expressing C6 glioma xenografted athymic mice; type: in vivo
Procedure: Studies with mice were performed under approval of the Mayo Clinic Institutional Animal Care and Use Committee. Dynamic PET imaging was performed in hNIS-expressing C6 glioma xenografted athymic mice following retro-orbital injection ˜1.1 MBq Na ^18F-TFB at different specific activities (10-0.001 mg TFB/Kg mouse) to assess hNIS activity with ^18F-TFB. In this xenograft model, one flank has hNIS-negative C6 glioma tumor xenograft and the other flank had hNIS-expressing C6 glioma xenograft.
PET scans were acquired for 60 min followed by an X-ray scan using the GENISYS4 PET imaging system (Sofie Biosciences, CA). The images from 40 hNIS-expressing C6 glioma xenografted mice were analyzed for Standardized Uptake Value (SUV) in tumor, stomach, and thyroid using AMIDE image processing software (20). The SUV in tumor was normalized with SUV in stomach to account for difference in ^18F-TFB bioavailability in different animals due to competing uptake in normal organs like thyroid, salivary glands and stomach.

[2] = PET/CT imaging of ^18F-TFB in healthy participants (pharmacokinetics, biodistribution); type: in vivo, human
Text: Approval of the study was obtained from the Mayo Clinic Institutional Review Board and all participants provided informed consent. Four male (36±14 y) and four female (35±8 y) healthy volunteers were enrolled in the study. Participants were excluded that had previous diagnosis of cancer or clinically significant cardiovascular, renal, pulmonary, metabolic, and endocrine (thyroid) diseases. Participants were not required to fast prior to the imaging study but instructed to remain well-hydrated.
The imaging protocol is illustrated in FIG. 13. After voiding of the bladder, participants were positioned in a GE 690XT PET/CT scanner (GE HealthCare, Waukesha, Wis.) in a supine position with the heart in the center of the axial field of view. Intravenous catheters were placed in both arms for radiotracer injection and blood sampling. Computed tomography scans of the thorax were initially acquired in the preparation for a dynamic PET data acquisition over the heart for the first 45 min following commencement of radiotracer administration. ^18F-TFB (333-407 MBq) was administered over 1 minute into one of the catheters. The frame sequence for initial dynamic PET acquisition was 15×4, 8×15, 4×30, and 8×300 seconds. Following the dynamic heart scan, the participants were allowed a break from the scanner, during which time voided their bladders. Two additional PET/CT scans, from the vertex of the skull to mid-thigh, were performed at 2 hours and 3.5 hours respectively. The last PET/CT scan was completed ˜4 h post-injection.
All PET scans images were reconstructed using 3D OSEM and time-of-flight reconstruction. Volumes of interest (VOI's) of organs were drawn using PMOD software (Ver. 3.5). Standardized Uptake Values (SUVs) normalized to body weight were then calculated for each VOI. Time-activity curves (TACs) were evaluated from the initial dynamic scan over the heart for left-ventricular blood pool, lung and liver regions.

[3] = Measurements in venous blood and urine samples, HPLC metabolite analysis; type: in vivo, human; settings: for Urine (% Dose), Accumulative: end of study (~250 min)
Procedure: Urine was collected after each PET/CT scan (approximately 55, 160, 250 min), and venous blood samples were collected at 40, 145 and 235 min, post-injection, as shown in FIG. 13. Blood samples (3-4 mL) were collected in heparinized tubes and placed on ice. The blood samples were centrifuged at 3000 g for 5 min to obtain plasma. Urine was measured for urine volume and radioactivity concentration as measured in a calibrated gamma counter. Analysis for metabolites in plasma and urine was performed by ion-chromatography HPLC, allowing estimation of the fraction of radioactivity as nonmetabolized ^18F-TFB.

[4] = C6-glioma xenograft mouse model, PET
[5] = representative participant, post-administration

**Q.** What does the source list for `F[B-](F)(F)[18F]` [^18F-TFB, ^18F-tetrafluoroborate]?
**A.** uptake by hNIS-expressing tumor versus specific activity ([1]; >13 MBq/μmol compared to 3 MBq/μmol): higher at high specific activity; uptake in hNIS-negative tumors [1, 4]: No uptake; uptake in thyroid, stomach, bladder and hNIS-expressing tumors [1, 4]: Robust uptake; stomach uptake versus specific activity ([1]; mouse, in vivo): independent of specific activity; stomach uptake over 60 min ([1]; over 60 min): linear increase; uptake kinetic in thyroid and hNIS-expressing tumor ([1]; rapid uptake over first 10 min, slower until 30 min): bi-phasic kinetic; PET/CT-derived distribution (SUV), Bone ([2]; females, 2 h post-injection): 0.74 ± 0.20 SUV; PET/CT-derived distribution (SUV), Brain ([2]; females, 2 h post-injection): 0.42 ± 0.15 SUV; PET/CT-derived distribution (SUV), Breast ([2]; females, 2 h post-injection): 2.8 ± 0.4 SUV; PET/CT-derived distribution (SUV), Gallbladder ([2]; females, 2 h post-injection): 3.7 ± 1.0 SUV; PET/CT-derived distribution (SUV), Intestines ([2]; females, 2 h post-injection): 5.0 ± 2.7 SUV; PET/CT-derived distribution (SUV), Kidney ([2]; females, 2 h post-injection): 5.6 ± 0.7 SUV; PET/CT-derived distribution (SUV), Liver ([2]; females, 2 h post-injection): 2.7 ± 0.5 SUV; PET/CT-derived distribution (SUV), Lung ([2]; females, 2 h post-injection): 1.2 ± 0.4 SUV; PET/CT-derived distribution (SUV), Muscle ([2]; females, 2 h post-injection): 0.65 ± 0.35 SUV; PET/CT-derived distribution (SUV), Myocardium ([2]; females, 2 h post-injection): 2.8 ± 0.5 SUV; PET/CT-derived distribution (SUV), Pancreas ([2]; females, 2 h post-injection): 3.1 ± 1.7 SUV; PET/CT-derived distribution (SUV), Parotid ([2]; females, 2 h post-injection): 20 ± 11 SUV; PET/CT-derived distribution (SUV), Spleen ([2]; females, 2 h post-injection): 4.3 ± 1.0 SUV; PET/CT-derived distribution (SUV), Stomach ([2]; females, 2 h post-injection): 72 ± 10 SUV; PET/CT-derived distribution (SUV), Thyroid ([2]; females, 2 h post-injection): 50 ± 11 SUV; PET/CT-derived distribution (SUV), Bone ([2]; females, 3.5 h post-injection): 1.3±0.9 SUV; PET/CT-derived distribution (SUV), Brain ([2]; females, 3.5 h post-injection): 0.61 ± 0.34 SUV; PET/CT-derived distribution (SUV), Breast ([2]; females, 3.5 h post-injection): 3.9 ± 1.4 SUV; PET/CT-derived distribution (SUV), Gallbladder ([2]; females, 3.5 h post-injection): 5.0 ± 1.6 SUV; PET/CT-derived distribution (SUV), Intestines ([2]; females, 3.5 h post-injection): 6.0 ± 3.1 SUV; PET/CT-derived distribution (SUV), Kidney ([2]; females, 3.5 h post-injection): 6.3 ± 2.4 SUV; PET/CT-derived distribution (SUV), Liver ([2]; females, 3.5 h post-injection): 3.5 ± 1.6 SUV; PET/CT-derived distribution (SUV), Lung ([2]; females, 3.5 h post-injection): 1.5 ± 0.8 SUV; PET/CT-derived distribution (SUV), Muscle ([2]; females, 3.5 h post-injection): 0.78 ± 0.54 SUV; PET/CT-derived distribution (SUV), Myocardium ([2]; females, 3.5 h post-injection): 3.8 ± 1.8 SUV; PET/CT-derived distribution (SUV), Pancreas ([2]; females, 3.5 h post-injection): 3.0 ± 1.2 SUV; PET/CT-derived distribution (SUV), Parotid ([2]; females, 3.5 h post-injection): 25 ± 15 SUV; PET/CT-derived distribution (SUV), Spleen ([2]; females, 3.5 h post-injection): 5.5 ± 2.8 SUV; PET/CT-derived distribution (SUV), Stomach ([2]; females, 3.5 h post-injection): 51 ± 18 SUV; PET/CT-derived distribution (SUV), Thyroid ([2]; females, 3.5 h post-injection): 58 ± 12 SUV; blood clearance of radioactivity (left-ventricular blood pool time-activity curve) ([2]; healthy participants): multiphasic; also recorded: multi-phasic; urinary clearance ([2]; healthy participants): prominent; PET/CT-derived distribution (SUV), Bone ([2]; males, 2 h post-injection): 0.80 ± 0.33 SUV; PET/CT-derived distribution (SUV), Brain ([2]; males, 2 h post-injection): 0.39 ± 0.14 SUV; PET/CT-derived distribution (SUV), Gallbladder ([2]; males, 2 h post-injection): 2.7 ± 1.5 SUV; PET/CT-derived distribution (SUV), Intestines ([2]; males, 2 h post-injection): 2.9 ± 1.0 SUV; PET/CT-derived distribution (SUV), Kidney ([2]; males, 2 h post-injection): 7.0 ± 2.5 SUV; PET/CT-derived distribution (SUV), Liver ([2]; males, 2 h post-injection): 2.3 ± 1.0 SUV; PET/CT-derived distribution (SUV), Lung ([2]; males, 2 h post-injection): 1.0 ± 0.4 SUV; PET/CT-derived distribution (SUV), Muscle ([2]; males, 2 h post-injection): 0.71 ± 0.31 SUV; PET/CT-derived distribution (SUV), Myocardium ([2]; males, 2 h post-injection): 3.2 ± 0.9 SUV; PET/CT-derived distribution (SUV), Pancreas ([2]; males, 2 h post-injection): 3.4 ± 0.7 SUV; PET/CT-derived distribution (SUV), Parotid ([2]; males, 2 h post-injection): 11 ± 9 SUV; PET/CT-derived distribution (SUV), Spleen ([2]; males, 2 h post-injection): 4.1 ± 1.2 SUV; PET/CT-derived distribution (SUV), Stomach ([2]; males, 2 h post-injection): 33 ± 15 SUV; PET/CT-derived distribution (SUV), Thyroid ([2]; males, 2 h post-injection): 55 ± 31 SUV; PET/CT-derived distribution (SUV), Bone ([2]; males, 3.5 h post-injection): 1.4±0.5 SUV; PET/CT-derived distribution (SUV), Brain ([2]; males, 3.5 h post-injection): 0.74 ± 0.26 SUV; PET/CT-derived distribution (SUV), Gallbladder ([2]; males, 3.5 h post-injection): 4.2 ± 1.7 SUV; PET/CT-derived distribution (SUV), Intestines ([2]; males, 3.5 h post-injection): 4.4 ± 1.0 SUV; PET/CT-derived distribution (SUV), Kidney ([2]; males, 3.5 h post-injection): 11 ± 3 SUV; PET/CT-derived distribution (SUV), Liver ([2]; males, 3.5 h post-injection): 3.6 ± 1.2 SUV; PET/CT-derived distribution (SUV), Lung ([2]; males, 3.5 h post-injection): 1.7 ± 0.6 SUV; PET/CT-derived distribution (SUV), Muscle ([2]; males, 3.5 h post-injection): 0.96 ± 0.31 SUV; PET/CT-derived distribution (SUV), Myocardium ([2]; males, 3.5 h post-injection): 5.0 ± 0.9 SUV; PET/CT-derived distribution (SUV), Pancreas ([2]; males, 3.5 h post-injection): 6.2 ± 2.1 SUV; PET/CT-derived distribution (SUV), Parotid ([2]; males, 3.5 h post-injection): 16 ± 13 SUV; PET/CT-derived distribution (SUV), Spleen ([2]; males, 3.5 h post-injection): 6.3 ± 1.1 SUV; PET/CT-derived distribution (SUV), Stomach ([2]; males, 3.5 h post-injection): 70 ± 32 SUV; PET/CT-derived distribution (SUV), Thyroid ([2]; males, 3.5 h post-injection): 82 ± 42 SUV; time of peak radioactivity concentration, LVBP [2, 5]: ~1 min; time of peak radioactivity concentration, liver [2, 5]: ~2 min; time of peak radioactivity concentration, lung [2, 5]: ~1 min; uptake in thyroid, stomach, salivary glands and kidney ([2]; whole-body PET/CT at 2 h post-injection): Robust uptake; also recorded: high uptakes; % Intact ^18F-TFB, Plasma ([3]; females, 40 min): 97 ± 3^c %; Plasma (SUV) ([3]; females, 40 min): 3.8 ± 1.0 SUV; Whole blood (SUV) ([3]; females, 40 min): 3.1 ± 0.9 SUV; Urine (% Dose) ([3]; females, 40 min column (urine collected ~10 min later)): 16 ± 3 % Dose; % Intact ^18F-TFB, Urine ([3]; females, 40 min column (urine ~10 min later)): 98 ± 1%; Plasma (SUV) ([3]; females, 145 min): 2.1 ± 0.5 SUV; Whole blood (SUV) ([3]; females, 145 min): 1.7 ± 0.4 SUV; Urine (% Dose) ([3]; females, 145 min column (urine collected ~10 min later)): 18 ± 3^ % Dose; % Intact ^18F-TFB, Urine ([3]; females, 145 min column (urine ~10 min later)): 98 ± 1%; Plasma (SUV) ([3]; females, 235 min): 1.7 ± 0.5 SUV; Whole blood (SUV) ([3]; females, 235 min): 1.4 ± 0.4 SUV; Urine (% Dose) ([3]; females, 235 min column (urine collected ~10 min later)): 12 ± 2 % Dose; % Intact ^18F-TFB, Urine ([3]; females, 235 min column (urine ~10 min later)): 97 ± 2%; Urine (% Dose), Accumulative ([3]; females): 47±7 % Dose; % Intact ^18F-TFB, Plasma ([3]; males, 40 min): 97 ± 2%; Plasma (SUV) ([3]; males, 40 min): 3.8 ± 0.2 SUV; Whole blood (SUV) ([3]; males, 40 min): 3.0 ± 0.2 SUV; Urine (% Dose) ([3]; males, 40 min column (urine collected ~10 min later)): 15 ± 2^b % Dose; % Intact ^18F-TFB, Urine ([3]; males, 40 min column (urine ~10 min later)): 96 ± 2%; Plasma (SUV) ([3]; males, 145 min): 2.8 ± 0.3 SUV; Whole blood (SUV) ([3]; males, 145 min): 2.1 ± 0.2 SUV; Urine (% Dose) ([3]; males, 145 min column (urine collected ~10 min later)): 13 ± 3 % Dose; % Intact ^18F-TFB, Urine ([3]; males, 145 min column (urine ~10 min later)): 97 ± 2%; Plasma (SUV) ([3]; males, 235 min): 2.0 ± 0.1 SUV; Whole blood (SUV) ([3]; males, 235 min): 1.7 ± 0.2 SUV; Urine (% Dose) ([3]; males, 235 min column (urine collected ~10 min later)): 10 ± 2^b % Dose; % Intact ^18F-TFB, Urine ([3]; males, 235 min column (urine ~10 min later)): 98 ± 1%; Urine (% Dose), Accumulative ([3]; males): 40±4 % Dose and 40 ± 4^b % Dose; ^18F-labeled metabolites in blood and urine (HPLC) ([3]; over the length of the study (4 h)): insignificant; radioactivity as metabolically intact ^18F-TFB in plasma ([3]; plasma samples at 40 min p.i.): > 97%
